In patent publication US8519154B2, “Method for treatment of bronchial asthma” (Council of Scientific & Industrial Research, priority 2011, dated 2013):

Legend:
[1] = system: BALB/c mice sensitized and challenged with ovalbumin (OVA); assay: Airway responsiveness to methacholine in mouse model of asthma; format: in vivo
Experimental: Present invention describes the efficacy of compound I in vivo mouse model of asthma. BALB/c mice were sensitized and challenged with ovalbumin (OVA) as shown in scheme 2 to develop asthmatic features such as airway hyperreactivity (AHR) to methacholine (MCh).
Mice were sensitized with 0.2 ml PBS containing 50 μg ovalbumin (OVA) (Sigma, USA) and 4 mg aluminum hydroxide in saline intraperitonially (i.p.) on days 0, 7 and 14 as shown in scheme 2. Sham group mice were sensitized with only alum dissolved in PBS. From day 21 to 30, mice were exposed to aerosol of OVA (3%) inhalation 25 minutes daily in a Plexiglas chamber (20×20×10 cm^3). The aerosol was generated by a nebulizer (OMRON CX, model) with an airflow rate of 9 L/minute. Sham group mice were challenged with PBS alone. […]
Airway responsiveness was measured by barometric plethysmography using whole-body plethysmography (WBP; Buxco, Troy, N.Y.) 12 hours after last saline or ovalbumin challenge. […] Enhanced pause (Penh) to methacholine as measured using barometric plethysmography is a valid indicator of bronchoconstriction in mice and can be used to measure AHR. […] Readings were taken and averaged for 5 minutes from the starting time of nebulisation. Airway responsiveness to MCh was evaluated by the concentration of MCh required to increase the Pen H to twice the baseline value (MCh PC200).

PDE-4 = assay: Phosphodiesterase 4 assay, [3H]cAMP SPA enzyme assay, enzyme preparation from rat heart; format: biochemical
Experimental: For phosphodiesterase (PDE-4) assay, enzyme preparations were performed from rat heart (Ko et al 2004, Biochemical Pharmacology 68:2087-2094). Heart was excised from anesthetized rat and transfer into normal saline solution. Heart weighing 687 mg was taken and homogenized in 2.5 volumes of homogenization buffer containing 20 mM Tris-Cl, 50 mM NaCl, 2 mM EDTA, 0.1 mM PMSF, […], protease inhibitors 1 μg/μl. The homogenate was centrifuged at 500×g for 5 minute at 4° C. Then sup was taken for further centrifuged at 40,000×g for 30 minute (ultra centrifugation). After centrifugation supernatant was collected for phosphodiesterase assay. Protein concentration was estimated and for each assay, 2.5 μg protein (PDE enzyme preparation) was used. All compounds tested for PDE 4 activity were dissolved in DMSO.
Phosphodiesterase 4 assay: Phosphodiesterase 4 assay was conducted with [^3H] cAMP SPA enzyme assay (GE Amersham, UK) using 2.5 μg enzyme preparation for each well. Into each well 60 μl water, 10 μl assay buffer supplied with the kit, 10 μl compound (inhibitor), 10 μl PDE enzyme or homogenizing buffer (blank) and […] radiolabel led cAMP ([^3H]cAMP, GE Amersham, UK) were added. To check activity of the enzyme without inhibitor (compound) 10 μl DMSO was added in place of inhibitor to a separate well. The reaction mixtures were incubated for […] at 30° C. The reaction was stopped by adding 50 μl SPA bead supplied with the kit. It was then mixed well and allowed to stand at room temperature for 20 min. Breakdown of cAMP in each tube was monitored by β counter. The reading in each tube was obtained in counts per minute (CPM). The reading of the blank tube (without enzyme) was subtracted from each tube to normalize the counts. The enzyme activity was calculated by considering the CPM reading without any inhibitor (compound) as 100.

COc1cc(C=O)cc2c1[nH]c1ccccc12 [Compound I, 1-methoxy-3-formyl-9H carbazole]
MChPC200 (airway hyper-responsiveness) ([1]; 0.1, 1 and 10 mg/kg orally twice per day): significantly attenuated the decrease in MChPC200 | dose with maximum effect on MChPC200 ([1]; orally twice per day): 10 mg/kg | % of Inhibition (PDE-4; 0.1 μg/ml): 1.4% | % of Inhibition (PDE-4; 1 μg/ml): 34.7% | % of Inhibition (PDE-4; 10 μg/ml): 73.1% | IC50 (PDE-4; compound of natural origin (extraction from plants)): 20 µM | extent of inhibition of PDE 4 activity (PDE-4; compound of natural origin, compared with rolipram): comparable to known PDE 4 inhibitor, rolipram | IC50 (PDE-4; synthetically prepared compound (chemical origin)): 0.05 µM
